Source: patent US9018249B2, “SGLT inhibitors” (Panacea Biotec Limited, priority 2011, dated 2015)

Legend:
[1] = biological target: T1, human SGLT-1 (Homo sapiens, UniProt P13866); experiment: Methyl-α-D-[U-14C]glucopyranoside uptake assay for SGLT-1 in CHO-K1 cells; format: cell-based; settings: CHO-K1 cells expressing hSGLT-1; for inhibition at 0.1 µM / inhibition at 1 µM / inhibition at 10 µM: read-out: % inhibition of Methyl-α-D-[U-^14C] Glucopyranoside uptake (CHO-K1 cells) mediated by SGLT-1
T1 construct: Full-length human SGLT-1 cDNA in the pCMV-XL-Neo expression vector was obtained from Origene Corporation; host or cells: CHO-K1 cells (American Type Culture Collection), stably transfected, G418-selected
T1 sequence (P13866 1-664): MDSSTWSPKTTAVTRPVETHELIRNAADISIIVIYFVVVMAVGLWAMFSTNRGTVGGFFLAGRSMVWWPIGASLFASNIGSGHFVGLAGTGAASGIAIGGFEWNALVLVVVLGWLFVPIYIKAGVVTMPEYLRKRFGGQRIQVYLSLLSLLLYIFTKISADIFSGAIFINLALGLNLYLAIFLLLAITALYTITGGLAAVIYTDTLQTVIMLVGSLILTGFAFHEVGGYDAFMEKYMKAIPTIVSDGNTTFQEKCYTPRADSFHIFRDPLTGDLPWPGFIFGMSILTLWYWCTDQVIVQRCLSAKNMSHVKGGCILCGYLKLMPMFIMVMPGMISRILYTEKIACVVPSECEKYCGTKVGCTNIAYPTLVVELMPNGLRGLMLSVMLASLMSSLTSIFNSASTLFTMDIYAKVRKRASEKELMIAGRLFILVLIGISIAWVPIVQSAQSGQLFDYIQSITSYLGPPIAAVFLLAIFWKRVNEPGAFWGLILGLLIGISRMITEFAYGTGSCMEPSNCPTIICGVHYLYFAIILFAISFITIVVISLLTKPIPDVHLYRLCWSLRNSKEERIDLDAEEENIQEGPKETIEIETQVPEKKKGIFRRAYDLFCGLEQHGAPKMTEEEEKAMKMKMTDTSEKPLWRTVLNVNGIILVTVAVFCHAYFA
Experimental: Preparation of Human SGLT-1 Expressing Cells
Full-length human SGLT-1 cDNA in the pCMV-XL-Neo expression vector was obtained from Origene Corporation and propagated in Escherichia coli strain DH5α using Luria-Bertani (LB) medium containing ampicillin. […] Stably transfected cells were selected using G418 antibiotic selection pressure.
Methyl-α-D-[U-^14C]Glucopyranoside Uptake Assay for SGLT-1
(§1) Cells expressing hSGLT-1 were seeded on 96-well tissue culture plates (Greiner, Inc.) in RPMI containing 10% FBS and 800 μg/ml G418 (0.8×10^5 cells per well in 200 μL medium) and incubated at 37° C. under 5% carbon dioxide for 24 h prior to the assay. Cells were washed twice with 200 μL of either sodium buffer (140 mM NaCl, 4.7 mM KCl, 2.2 mM CaCl2, 1.2 mM MgCl2, 10 mM Tris/Hepes, pH 7.4) or sodium-free buffer (137 mM N-methyl-glucamine, 4.7 mM KCl, 2.2 mM CaCl2, 1.2 mM MgCl2, 10 mM Tris/Hepes, pH 7.4). Reaction mixture containing test compounds diluted in assay buffer, 1 mM unlabeled Methyl-α-D-glucopyranoside and 1 μCi/well methyl-α-D-[U-^14C]glucopyranoside (American Radiochemicals) was added per well of a 96-well plate and incubated at 37° C. for 1 h. Cells were washed thrice with 200 μL of wash buffer (140 mM NaCl, 4.7 mM KCl, 2.2 mM CaCl2, 1.2 mM MgCl2, 10 mM Tris/Hepes, pH 7.4 containing 500 μM phlorizin) and lysed using 50 μL of 0.25N NaOH. Methyl-α-D[U-^14C]glucopyranoside uptake was quantitated using a Top count scintillation counter (PerkinElmer, Inc.). All the test compounds were assayed in triplicates.

[2] = tested on: C57BL/6J mice; experiment: Estimation of urinary glucose in C57BL/6J mice; format: in vivo, mouse; settings: urine collected over 24 h
Experimental: Estimation of Urinary Glucose in C57BL/6J Mice
C57BL/6J mice were fasted 4 h before drug treatment. Fasted mice were weighed and randomized into different groups based on their body weight (n=6). At time T0 test compounds and standard compounds suspended in 0.25% CMC or PEG 400 formulation, were administered to respective groups and kept in metabolic cages (6 mice/cage) after dosing. Animals were fed after drug administration and urine was collected over a period of 24 h. Urinary volume was measured and urinary glucose was estimated using Merckotest Glucose Reagent (Merck Specialties Pvt. Ltd., India).

[3] = biological target: T2, mouse SGLT-2 (Mus musculus, UniProt Q923I7); experiment: Methyl-α-D-[U-14C]glucopyranoside uptake assay for SGLT-2 in CHO-K1 cells; format: cell-based; settings: CHO-K1 cells expressing mSGLT-2, read-out: % inhibition of Methyl-α-D-[U-^14C] Glucopyranoside uptake (CHO-K1 cells) mediated by SGLT-2; for inhibition at 0.001 µM: 1 nM; for inhibition at 0.01 µM: 10 nM; for inhibition at 0.1 µM: 100 nM
T2 construct: Full-length mouse SGLT-2 cDNA was amplified from C57BL/6J mouse kidneys and introduced in the pcDNA3.1(+) expression vector; expressed in transfected cells; host or cells: CHO-K1 cells (American Type Culture Collection), stably transfected, G418-selected
T2 sequence (Q923I7 1-670): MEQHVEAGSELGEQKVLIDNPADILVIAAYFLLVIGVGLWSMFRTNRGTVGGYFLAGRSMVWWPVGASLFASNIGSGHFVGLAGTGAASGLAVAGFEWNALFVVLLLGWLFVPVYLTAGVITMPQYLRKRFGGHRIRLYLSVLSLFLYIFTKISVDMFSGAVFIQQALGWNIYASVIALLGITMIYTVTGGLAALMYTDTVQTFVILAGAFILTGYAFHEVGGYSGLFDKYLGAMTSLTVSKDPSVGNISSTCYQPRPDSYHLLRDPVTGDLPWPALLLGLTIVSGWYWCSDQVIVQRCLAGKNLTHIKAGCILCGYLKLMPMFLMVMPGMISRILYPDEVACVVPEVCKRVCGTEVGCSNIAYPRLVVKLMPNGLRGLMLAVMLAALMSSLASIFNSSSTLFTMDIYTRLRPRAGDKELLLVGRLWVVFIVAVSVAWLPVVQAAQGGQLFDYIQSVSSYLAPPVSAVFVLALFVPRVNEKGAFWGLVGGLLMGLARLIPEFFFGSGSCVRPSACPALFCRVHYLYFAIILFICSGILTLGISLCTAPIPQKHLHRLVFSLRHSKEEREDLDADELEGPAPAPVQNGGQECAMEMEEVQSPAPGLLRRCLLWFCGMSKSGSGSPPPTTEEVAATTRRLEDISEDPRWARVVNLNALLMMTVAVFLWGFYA
Experimental: Preparation of Mouse SGLT-2 Expressing Cells
Full-length mouse SGLT-2 cDNA was amplified from C57BL/6J mouse kidneys and introduced in the pcDNA3.1(+) expression vector (Invitrogen, Inc.) and propagated in Escherichia coli strain DH5α using LuriaBertani (LB) medium containing ampicillin. […] Stably transfected cells were selected using G418 antibiotic selection pressure.
Methyl-α-D-[U-^14C]Glucopyranoside Uptake Assay for SGLT-2
as §1, with “Cells expressing mSGLT-2 were seeded” for “Cells expressing hSGLT-1 were seeded”, “FBS and 400 μg/mL G418 (0.8×10^5” for “FBS and 800 μg/ml G418 (0.8×10^5”, “test compounds at different concentrations diluted in” for “test compounds diluted in”, “assay buffer, 0.1 mM unlabeled” for “assay buffer, 1 mM unlabeled”, “0.25N NaOH. Methyl-α-D-[U-^14C]glucopyranoside uptake was” for “0.25N NaOH. Methyl-α-D[U-^14C]glucopyranoside uptake was”

| inhibition at 0.1 µM ([1]; 100 nM) [%] | inhibition at 1 µM [1] [%] | inhibition at 10 µM [1] [%] | inhibition at 0.001 µM [3] [%] | inhibition at 0.01 µM [3] [%] | inhibition at 0.1 µM [3] [%] | % inhibition of Methyl-α-D-[U-^14C] Glucopyranoside uptake (CHO-K1 cells) mediated by SGLT-1 ([1]; 100 nM) | Compound | UGE in mice (in mg/g of feed consumed) at 3 mpk [2] |
| --- | --- | --- | --- | --- | --- | --- | --- | --- |
| 25.7 | 53.7 | 68.2 | < 0 | 20.1 | 50.8 | – | CCON=CCOc1ccc(Cc2cc([C@]34OC[C@](CO)(O3)[C@@H](O)[C@H](O)[C@H]4O)ccc2Cl)cc1 [Compound 11] | 56.1 mg/g of feed consumed |
| – | 70 | 92.9 | 40.2 | 37.9 | 77.2 | N.E. | CON=CCCOc1ccc(Cc2cc(C3O[C@H](OC)[C@@H](O)[C@H](O)[C@H]3O)ccc2Cl)cc1 (stereo partly shown) [Compound 29] | – |
| 24 | 26.4 | 77.9 | 35.6 | 37.3 | 54 | – | CON=C(C)COc1ccc(Cc2cc(C3O[C@H](OC)[C@@H](O)[C@H](O)[C@H]3O)ccc2Cl)cc1 (stereo partly shown) [Compound 30] | – |
